Results taken from ChEMBL document CHEMBL5634071, “Fluorine in anti-HIV drugs approved by FDA from 1981 to 2023” (Eur J Med Chem, 2023).

Tests used:
[1] = test system: Human immunodeficiency virus; experiment: Antiviral activity against HIV IIIB infected in human MT4 cells; type: functional, organism-based; conditions: Human immunodeficiency virus 1, IIIB
[2] = target: C-C chemokine receptor type 5 (Homo sapiens, UniProt P51681); experiment: Displacement of [125I]MIP-1alpha from CCR5 receptor (unknown origin) expressed in HEK293 cells; type: cell-based
Sequence of C-C chemokine receptor type 5 (P51681 whole entry): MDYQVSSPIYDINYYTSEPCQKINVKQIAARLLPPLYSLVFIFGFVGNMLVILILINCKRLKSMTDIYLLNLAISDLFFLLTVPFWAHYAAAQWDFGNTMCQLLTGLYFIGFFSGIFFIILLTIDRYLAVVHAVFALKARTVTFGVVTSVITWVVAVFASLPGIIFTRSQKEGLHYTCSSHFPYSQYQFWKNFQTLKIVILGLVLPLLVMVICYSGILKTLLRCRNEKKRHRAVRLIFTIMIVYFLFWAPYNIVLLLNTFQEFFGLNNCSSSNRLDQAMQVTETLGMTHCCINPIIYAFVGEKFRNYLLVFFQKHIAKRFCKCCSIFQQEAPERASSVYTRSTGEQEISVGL

Cytochrome P450 2D6 = Cytochrome P450 2D6 (Homo sapiens, UniProt P10635); experiment: Inhibition of CYP2D6 (unknown origin); type: ADME
Sequence of Cytochrome P450 2D6 (P10635 whole entry): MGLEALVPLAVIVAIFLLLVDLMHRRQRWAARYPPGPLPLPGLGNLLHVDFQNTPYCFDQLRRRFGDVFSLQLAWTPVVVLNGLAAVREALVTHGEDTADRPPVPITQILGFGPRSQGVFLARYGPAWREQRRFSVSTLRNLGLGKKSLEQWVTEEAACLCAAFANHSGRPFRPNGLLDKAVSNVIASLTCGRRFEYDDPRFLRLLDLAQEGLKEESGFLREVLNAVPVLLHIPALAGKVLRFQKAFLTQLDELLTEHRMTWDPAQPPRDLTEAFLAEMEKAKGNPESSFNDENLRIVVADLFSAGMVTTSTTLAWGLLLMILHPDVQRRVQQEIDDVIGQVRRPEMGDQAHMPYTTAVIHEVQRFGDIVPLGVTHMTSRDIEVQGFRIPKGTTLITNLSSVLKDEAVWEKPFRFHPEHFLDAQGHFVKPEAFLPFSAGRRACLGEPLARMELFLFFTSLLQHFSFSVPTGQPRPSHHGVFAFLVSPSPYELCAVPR

[3] = test system: Human immunodeficiency virus 1; experiment: Antiviral activity against HIV-1 RF infected in human MT4 cells assessed as reduction in viral RNA production measured after 3 days by plaque assay; type: functional; conditions: Human immunodeficiency virus 1, RF, MT4, 72 h; time 3 day
[4] = Inhibition of HIV integrase; set-up: species or system Human immunodeficiency virus
[5] = test system: Human immunodeficiency virus; experiment: Antiviral activity agaisnt HIV BAL infected in human PM1 cells assessed as inhibition of viral replication; type: functional, organism-based; conditions: Human immunodeficiency virus 1, BAL
[6] = test system: Human immunodeficiency virus 1; experiment: Antiviral activity against HIV-1 NL4-3 infected in human MT4 cells assessed as reduction in virus induced cytopathic effect by XTT assay; type: functional, organism-based; conditions: Human immunodeficiency virus 1, NL4-3, MT4
[7] = Cytotoxicity against human CEM cells; type: toxicity, cell-based; conditions: CEM cells (CCRF-CEM)
[8] = test system: Human immunodeficiency virus 1; experiment: Antiviral activity against HIV-1 LAV infected in human CEM cells; type: functional, organism-based; conditions: Human immunodeficiency virus 1, LAV, CCRF-CEM
hERG = hERG (Homo sapiens, UniProt Q12809); experiment: Inhibition of tritium labelled dofetilide binding to hERG expressed in HEK293 cells at 300 nM relative to control; type: toxicity, cell-based; conditions: HEK293 cells that express hERG, probe tritium labelled dofetilide
Sequence of hERG (Q12809 whole entry): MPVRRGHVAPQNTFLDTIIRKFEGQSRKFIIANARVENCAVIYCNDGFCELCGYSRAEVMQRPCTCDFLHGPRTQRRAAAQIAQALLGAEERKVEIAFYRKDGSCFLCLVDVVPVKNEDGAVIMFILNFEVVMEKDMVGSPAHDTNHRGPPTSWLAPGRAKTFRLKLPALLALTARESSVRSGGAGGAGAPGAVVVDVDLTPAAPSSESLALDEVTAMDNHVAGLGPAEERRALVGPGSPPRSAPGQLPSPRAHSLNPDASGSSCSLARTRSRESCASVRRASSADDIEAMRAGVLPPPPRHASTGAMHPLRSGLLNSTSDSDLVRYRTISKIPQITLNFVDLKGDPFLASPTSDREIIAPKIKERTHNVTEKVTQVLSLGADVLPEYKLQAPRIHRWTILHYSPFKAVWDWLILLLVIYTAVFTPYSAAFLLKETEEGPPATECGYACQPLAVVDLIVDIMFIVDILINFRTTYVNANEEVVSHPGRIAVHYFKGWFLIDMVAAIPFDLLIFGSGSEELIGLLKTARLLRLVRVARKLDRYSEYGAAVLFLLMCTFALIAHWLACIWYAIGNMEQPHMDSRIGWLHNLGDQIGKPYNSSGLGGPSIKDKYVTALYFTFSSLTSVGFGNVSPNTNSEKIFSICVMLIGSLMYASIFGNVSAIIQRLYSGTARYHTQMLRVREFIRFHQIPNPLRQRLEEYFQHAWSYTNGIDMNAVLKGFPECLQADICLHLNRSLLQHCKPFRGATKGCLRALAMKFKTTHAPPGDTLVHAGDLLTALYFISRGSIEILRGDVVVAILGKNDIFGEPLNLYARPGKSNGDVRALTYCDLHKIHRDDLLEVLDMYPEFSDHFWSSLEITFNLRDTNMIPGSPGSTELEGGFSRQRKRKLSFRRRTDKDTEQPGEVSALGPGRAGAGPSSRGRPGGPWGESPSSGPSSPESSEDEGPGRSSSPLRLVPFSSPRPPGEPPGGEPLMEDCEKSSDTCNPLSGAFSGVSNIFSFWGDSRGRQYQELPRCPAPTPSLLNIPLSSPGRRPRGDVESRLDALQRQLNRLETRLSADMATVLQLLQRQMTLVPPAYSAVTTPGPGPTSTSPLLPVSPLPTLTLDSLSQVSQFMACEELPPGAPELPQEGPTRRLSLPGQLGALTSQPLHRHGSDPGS

[9] = target: T1, DNA polymerase subunit gamma-1 (Homo sapiens) (UniProt P54098); experiment: Ratio of K for biding affinity to human DNA polymerase gamma assessed as polymerization rate to Kd for binding affinity to human DNA polymerase gamma
T1 sequence (whole entry): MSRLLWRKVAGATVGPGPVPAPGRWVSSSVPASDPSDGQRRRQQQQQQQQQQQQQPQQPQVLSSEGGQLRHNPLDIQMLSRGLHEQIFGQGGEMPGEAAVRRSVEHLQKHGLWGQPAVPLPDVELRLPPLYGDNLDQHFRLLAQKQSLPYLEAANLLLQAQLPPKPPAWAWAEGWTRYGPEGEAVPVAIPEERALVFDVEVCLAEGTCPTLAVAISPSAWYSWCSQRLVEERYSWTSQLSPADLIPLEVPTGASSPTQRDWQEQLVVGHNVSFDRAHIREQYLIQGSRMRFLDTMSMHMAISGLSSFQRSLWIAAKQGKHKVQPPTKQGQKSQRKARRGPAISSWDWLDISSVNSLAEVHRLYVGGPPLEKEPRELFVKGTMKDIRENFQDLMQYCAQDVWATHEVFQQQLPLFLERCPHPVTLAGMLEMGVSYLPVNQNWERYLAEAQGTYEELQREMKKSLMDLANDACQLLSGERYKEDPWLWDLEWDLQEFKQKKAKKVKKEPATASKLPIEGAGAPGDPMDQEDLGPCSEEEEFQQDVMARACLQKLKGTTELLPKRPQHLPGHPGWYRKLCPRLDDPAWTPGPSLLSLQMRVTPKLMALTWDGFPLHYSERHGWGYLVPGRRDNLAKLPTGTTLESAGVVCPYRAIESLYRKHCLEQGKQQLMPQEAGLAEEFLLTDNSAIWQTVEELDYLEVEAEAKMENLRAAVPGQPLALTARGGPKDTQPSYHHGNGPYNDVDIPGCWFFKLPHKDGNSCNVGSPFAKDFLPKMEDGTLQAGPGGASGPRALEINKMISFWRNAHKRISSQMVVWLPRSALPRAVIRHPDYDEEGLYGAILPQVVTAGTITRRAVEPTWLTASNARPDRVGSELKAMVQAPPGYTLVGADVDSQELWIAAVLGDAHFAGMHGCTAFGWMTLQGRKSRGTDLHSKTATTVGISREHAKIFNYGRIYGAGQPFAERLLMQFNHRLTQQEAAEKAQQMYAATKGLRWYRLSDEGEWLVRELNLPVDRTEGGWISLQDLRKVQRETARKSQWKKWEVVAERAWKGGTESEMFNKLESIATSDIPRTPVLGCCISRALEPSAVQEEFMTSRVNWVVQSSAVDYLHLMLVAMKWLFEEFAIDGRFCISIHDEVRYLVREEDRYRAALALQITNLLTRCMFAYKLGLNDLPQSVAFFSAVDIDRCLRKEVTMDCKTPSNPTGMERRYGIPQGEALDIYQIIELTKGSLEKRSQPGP

[10] = target: T2, DNA polymerase subunit gamma-1 (Homo sapiens, UniProt P54098); experiment: Binding affinity to human DNA polymerase gamma assessed as dissociation constant
T2 sequence (P54098 whole entry): T1 sequence (whole entry)

[11] = target: T1, DNA polymerase subunit gamma-1 (Homo sapiens); experiment: Binding affinity to human DNA polymerase gamma assessed as polymerization rate
[12] = test system: Human immunodeficiency virus 1; experiment: Antiviral activity against HIV-1 infected in PBMC (unknown origin) assessed as inhibition of viral replication by ELISA; type: functional, organism-based; conditions: Human immunodeficiency virus 1, PBMC
[13] = target: Human immunodeficiency virus type 1 protease (Human immunodeficiency virus 1, UniProt Q72874); experiment: Inhibition of HIV-1 protease
[14] = test system: Human immunodeficiency virus 1; experiment: Antiviral activity against HIV-1 IIIB infected in human H9 cells; type: functional, organism-based; conditions: Human immunodeficiency virus 1, IIIB

## O=C1Nc2ccc(Cl)cc2[C@](C#Cc2ccccn2)(C2CC2)N1
[1]
  IC50: 9.3 µM

## Cc1nc2ccccc2n1C1CCN(CCC(c2ccccc2)c2ccccc2)CC1
[2]
  IC50: 4 nM
Cytochrome P450 2D6
  IC50: 710 nM

## O=C1Nc2ccc(Cl)cc2[C@@](/C=C/C2CC2)(C(F)(F)F)N1
[3]
  IC90: 2.1 nM

## C[C@@H]1CCO[C@H]2Cn3cc(C(=O)NCc4ccc(F)cc4F)c(=O)c(O)c3C(=O)N12 [DOLUTEGRAVIR]
[4]
  IC50: 2.7 nM

## Cc1nnc(C(C)C)n1C1CC2CCC(C1)N2CC[C@H](NC(=O)C1CCCC1)c1ccccc1 (stereo not given in full)
[5]
  IC90: 1.6 nM

## Cc1[nH]c2ccccc2c1CC(=O)N[C@@H](Cc1ccccc1)C(=O)N(C)c1ccccc1
[6]
  IC50: 570 nM

## Nc1ccn([C@@H]2CS[C@H](CO)O2)c(=O)n1 [LAMIVUDINE]
[7]
  CC50: > 100 µM
[8]
  IC50: 70 nM

## Cc1nc2ccccc2n1C1C[C@H]2CC[C@@H](C1)N2CC[C@H](NC(=O)C1CCC1)c1ccccc1 (stereo not given in full)
[5]
  IC90: 3 nM
hERG
  inhibition at 0.3 µM: 80%

## Nc1ccn([C@@H]2CS[C@H](COP(=O)(O)OP(=O)(O)OP(=O)(O)O)O2)c(=O)n1 [LAMIVUDINE TRIPHOSPHATE]
[9]
  Ratio: 0.01 µM⁻¹ s⁻¹
[10]
  Kd: 13 µM
[11]
  K: 0.13 s⁻¹

## Cc1nc2ccccc2n1C1CCN(CC[C@H](NC(=O)C2CCC2)c2ccccc2)CC1
[5]
  IC50: 73 nM

## CN(C(=O)[C@@H](CCc1ccccc1)NC(=O)Cc1c[nH]c2ccccc12)c1ccccn1
[6]
  IC50: 4500 nM

## O=C1Nc2ccc(Cl)cc2[C@@](C#Cc2ccccn2)(C2CC2)N1
[1]
  IC50: 0.012 µM

## Cc1nc2ccccc2n1C1CCN(CCC(NC(=O)c2ccccc2)c2ccccc2)CC1 (stereo not given)
[2]
  IC50: 45 nM
[5]
  IC50: 210 nM

## Cc1nnc(C(C)C)n1[C@H]1C[C@H]2CC[C@@H](C1)N2CC[C@H](NC(=O)C1CCC(F)(F)CC1)c1ccccc1 [MARAVIROC]
[5]
  IC90: 1 nM

## Cc1[nH]c2ccccc2c1CC(=O)N[C@@H](Cc1ccccc1)C(=O)N(C)c1ccccn1
[6]
  IC50: 800 nM

## Nc1nc(=O)n([C@@H]2CS[C@H](COP(=O)(O)OP(=O)(O)OP(=O)(O)O)O2)cc1F [EMTRICITABINE 5'-TRIPHOSPHATE]
[9]
  Ratio: < 1.4 10^-4/µM/s
[10]
  Kd: 63 µM
[11]
  K: < 8.6 10^-3/s

## Nc1ccn([C@H]2CC[C@@H](CO)O2)c(=O)n1 [ZALCITABINE]
[12]
  IC50: 11 nM

## CCC[C@]1(CCc2ccccc2)CC(O)=C([C@@H](CC)c2cccc(NS(=O)(=O)c3ccc(C#N)cn3)c2)C(=O)O1
[13]
  Ki: 0.12 nM
[14]
  IC50: > 1000 nM
  IC90: > 1000 nM

## Cc1nc2cnccc2n1C1CCN(CCC(c2ccccc2)c2ccccc2)CC1
Cytochrome P450 2D6
  IC50: 40 nM

## Cc1nc2ccccc2n1C1CCN(CC[C@@H](NC(=O)c2ccccc2)c2ccccc2)CC1
[2]
  IC50: 580 nM
